Experimental data from patent US5200419A, “Substituted tetrazoles and derivatives thereof acting at muscarinic receptors” (Warner-Lambert Company, priority 1990, dated 1993).

How the values were obtained:
[1] = in vivo; cited from earlier work
[2] = tested on: central muscarinic antagonist site; format: binding; conditions: rat cerebral cortex, [3H]quinuclidinyl benzilate
[3] = tested on: central muscarinic agonist site; assay: Receptor [^3 H]Cis-methyldioxalane Assay (RCMD), rat cerebral cortex; format: binding
[4] = aged humans and nonhuman primates with decreased cognition; cited from earlier work

Row | Structure (SMILES) | age-related cognitive deficits [1] | RQNB (% Inhibition at 1 μM) [2] [%] | RCMD (% Inhibition at 0.1 μM) [3] [%] | memory [4]
1 | Nc1ccncc1N [3,4-diaminopyridine] | ameliorate age-related cognitive deficits |  |  | 
2 | c1nnnn1C1CN2CCC1CC2 (centres unmarked) [Example 1, 3-(1H-Tetrazol-1-yl)-1-azabicyclo[2.2.2]octane] |  | 7 | 0 | 
3 | Cc1nnnn1C1CN2CCC1CC2 (centres unmarked) [Example 1a, 3-(5-Methyl-1H-tetrazol-1-yl)-1-azabicyclo[2.2.2]octane] |  | 19 | 8 | 
4 | CCc1nnnn1C1CN2CCC1CC2 (centres unmarked) [Example 1b, 3-(5-Ethyl-1H-tetrazol-1-yl)-1-azabicyclo[2.2.2]-octane] |  | 11 | 15 | 
5 | CNC(=O)Oc1ccc2c(c1)[C@]1(C)CCN(C)[C@@H]1N2C [physostigmine] |  |  |  | improved memory
